41 compounds from patent publication US12187720B2, “Compounds for treatment of cancer” (ONCTERNAL THERAPEUTICS, INC., priority 2010, dated 2025) can be followed below.

Where two headings read alike, the source gives them in different places. Where only a bound is given, the exact number is not on record here.

Experiment [1] concerns LNCaP. Nature of the experiment: SRB cytotoxicity assay, LNCaP prostate cancer cells. The experiment is classed as cell-based, human. The text has this:
(§1) Cells were stained with SRB solution.
On the technique in general: In SRB staining, fixed cells bind dye roughly in proportion to their protein.

Experiment [2] deals with DU 145. Kind of experiment: SRB cytotoxicity assay, DU 145 prostate cancer cells. The experiment is classed as cell-based. Particulars: Homo sapiens.
Excerpt: as §1

In experiment [3] the test system is PC-3. Kind of experiment: SRB cytotoxicity assay, PC-3 prostate cancer cells. The format is cell-based, human. The note with it: read-out: inhibitory effects PC3.
Excerpt: as §1

For experiment [4], the system named is PPC-1. Kind of experiment: SRB cytotoxicity assay, PPC-1 prostate cancer cells. The format is cell-based, human.
Excerpt: as §1

The test system of experiment [5] is melanoma and prostate cancer cell lines. Nature of the experiment: SRB cytotoxicity, summary or average over melanoma and prostate cancer cell lines. Particulars: for IC50: average of all seven cell lines. The experiment is classed as cell-based.
The mark [6] stands for this setting: Homo sapiens, LNCaP, Table 6A, read-out: IC50 LNCaP.
Setting [7] is: Table 13A, read-out: inhibitory effects DU145.
[8] abbreviates: Homo sapiens, LNCaP, Table 13A, read-out: inhibitory effects LNCaP.
Where [9] appears, read: Homo sapiens, PPC-1, Table 13A, read-out: inhibitory effects PPC1.
Where [10] appears, read: Table 13B, read-out: inhibitory effects DU145.
[11] abbreviates: Homo sapiens, LNCaP, Table 13B, read-out: inhibitory effects LNCaP.
Setting [12] is: Homo sapiens, PPC-1, Table 13B, read-out: inhibitory effects PPC1.

In the case of `O=C(c1ccc(OC(F)(F)F)cc1)c1csc(-c2ccccc2)n1` [compound 13], the IC50 in experiment [1] (setting [6]) was > 10000 nM. Regarding `COc1cc(C(=O)c2nc(-c3ccc(F)cc3)c[nH]2)cc(OC)c1OC` [70b, (4-(4-fluorophenyl)-1H-imidazol-2-yl)(3,4,5-trimethoxyphenyl)methanone], the IC50 in experiment [2] (setting [7]) came out at 353 nM; in experiment [3] (Homo sapiens, PC-3, Table 13A), 196 nM; in experiment [1] (setting [8]), 114 nM; in experiment [4] (setting [9]), 13 nM. On to `O=C(c1cc(O)c(O)c(O)c1)c1csc(-c2ccccc2)n1` [compound 33], for which the IC50 in experiment [1] (setting [6]) is > 2000 nM. For `COc1ccc(C(=O)c2nc(-c3ccc(OC)cc3)c[nH]2)cc1` [70w, (4-methoxyphenyl)(4-(4-methoxyphenyl)-1H-imidazol-2-yl)methanone], the IC50 in experiment [2] (setting [10]) was 9390 nM; in experiment [3] (Homo sapiens, PC-3, Table 13B), 23400 nM; in experiment [1] (setting [11]), 6410 nM; in experiment [4] (setting [12]) it was 38200 nM. With `COc1cc(C(=O)c2nc(-c3ccccc3)cn2C)cc(OC)c1OC` [70m, (1-methyl-4-phenyl-1H-imidazol-2-yl)(3,4,5-trimethoxyphenyl)methanone], in experiment [3] (Homo sapiens, PC-3, Table 13A), the IC50 worked out at 16 nM. `O=C(c1ccc(Cl)cc1)c1nc(-c2ccc(Cl)cc2)c[nH]1` [70s, (4-chlorophenyl)(4-(4-chlorophenyl)-1H-imidazol-2-yl)methanone]: the IC50 is > 50000 nM in experiment [2] (setting [10]); > 50000 nM in experiment [3] (Homo sapiens, PC-3, Table 13B); > 50000 nM in experiment [1] (setting [11]); > 50000 nM in experiment [4] (setting [12]). In the case of `COc1cc(-c2c[nH]c(C(=O)c3ccc(Br)cc3)n2)cc(OC)c1OC` [70z, 4-bromophenyl(4-(3,4,5-trimethoxyphenyl)-1H-imidazol-2-yl)methanone], the IC50 in experiment [2] (setting [10]) is 430 nM; in experiment [3] (Homo sapiens, PC-3, Table 13B), 371 nM; in experiment [1] (setting [11]) it was 131 nM; in experiment [4] (setting [12]), 107 nM. With `O=C(c1ccc2c(c1)OCO2)N1CCC(c2ccccc2)CC1` [compound 19], the IC50 in experiment [1] (setting [6]) was > 20000 nM. As to `O=C(c1ccc(F)cc1)c1c[nH]c(-c2ccc(OCc3ccccc3)cc2)n1` [12jb, (2-(4-(benzyloxy)phenyl)-1H-imidazol-4-yl)(4-fluorophenyl)methanone], the “fold more activity than the comparator” value in experiment [5] (2e-cis vs 2e-trans, 12jb vs 12kb) is 440 fold. In experiment [5], this compound returned an IC50 of 75 nM. As for `COc1cc(C(=O)c2nc(-c3ccccc3)cn2Cc2ccccc2)cc(OC)c1OC` [70o, (1-benzyl-4-phenyl-1H-imidazol-2-yl)(3,4,5-trimethoxyphenyl)methanone], the IC50 in experiment [3] (Homo sapiens, PC-3, Table 13A) came out at 72 nM.

For the compound `Cc1ccc(-c2nc(C(=O)c3ccc(F)cc3)cs2)cc1` [compound 11], the IC50 in experiment [2] (Table 6A, read-out: IC50 DU 145) is ~10000 nM; in experiment [1] (setting [6]), > 10000 nM; in experiment [4] (Homo sapiens, PPC-1, Table 6A, read-out: IC50 PPC-1), ~10000 nM. Take `COc1ccc(-c2nc(C(=O)c3cc(OC)c(OC)c(OC)c3)cn2S(=O)(=O)c2ccccc2)cc1OC` [11ha, (2-(3,4-dimethoxyphenyl)-1-(phenylsulfonyl)-1H-imidazol-4-yl)(3,4,5-trimethoxyphenyl)methanone]: in experiment [5], the IC50 turned out to be 268 nM.

As for `COc1cc(-c2nc(C(=O)c3ccc(F)cc3)cn2C(=O)c2ccc(F)cc2)cc(OC)c1OC` [compound 30], the IC50 in experiment [1] (setting [6]) is > 10000 nM. Consider `COc1cc(/C=C\c2csc(-c3ccccc3)n2)cc(OC)c1OC` [3a, (Z)-2-Phenyl-4-(3,4,5-trimethoxystyryl)thiazole], for which, in experiment [5], the “antiproliferative activity in words” value is listed as “lost activity”. `O=C(c1ccc(F)cc1)N1CCC(c2ccccc2)CC1` [compound 22]: the IC50 in experiment [1] (setting [6]) is > 20000 nM. With `COc1cc(C(=O)c2nc(-c3ccccc3)cn2C2CCCC2)cc(OC)c1OC` [70p, (1-cyclopentyl-4-phenyl-1H-imidazol-2-yl)(3,4,5-trimethoxyphenyl)methanone], the IC50 in experiment [3] (Homo sapiens, PC-3, Table 13A) was found to be 56 nM. Take `COc1cc(C(=O)c2csc(-c3ccc(CN(C)C)cc3)n2)cc(OC)c1OC.Cl` [2u, (2-(4-((Dimethylamino)methyl)phenyl)thiazol-4-yl)(3,4,5-trimethoxyphenyl)methanone hydrochloride]: the “antiproliferative activity in words” value in experiment [5] was “abrogated activity”. As to `COc1cc(C(=O)c2nc(-c3ccccc3)c[nH]2)cc(OC)c1OC` [70a, (4-phenyl-1H-imidazol-2-yl)(3,4,5-trimethoxyphenyl)methanone], the IC50 in experiment [3] (Homo sapiens, PC-3, Table 13A) was found to be 14 nM. In experiment [5], `Cc1ccc(-c2nc(C(=O)c3ccc(F)cc3)c[nH]2)cc1` [12db, (4-fluorophenyl)(2-(p-tolyl)-1H-imidazol-4-yl)methanone] registered an IC50 of 109 nM. Same read-out and setting: with `COc1cc(C(=O)c2c[nH]c(-c3ccc(OCc4ccccc4)cc3)n2)cc(OC)c1OC` [12ja, (2-(4-(benzyloxy)phenyl)-1H-imidazol-4-yl)(3,4,5-trimethoxyphenyl)methanone] the figure was 7300 nM. Same read-out and setting: the result for `O=C(c1cc(O)c(O)c(O)c1)c1c[nH]c(-c2ccc(Cl)cc2)n1` [13fa, (2-(4-chlorophenyl)-1H-imidazol-4-yl)(3,4,5-trihydroxyphenyl)methanone] reads 3890 nM. For “4-Methoxyphenyl(4-(3,4,5-trimethoxyphenyl)-1H-imidazol-2-yl)methanone and 4-methoxyphenyl(5-(3,4,5-trimethoxyphenyl)-1H-imidazol-2-yl)methanone [70y]”, the IC50 was determined as 10400 nM in experiment [3] (Table 13B); 708 nM in experiment [1] (Table 13B, read-out: inhibitory effects LNCaP); 5680 nM in experiment [4] (Table 13B, read-out: inhibitory effects PPC1). Turning to `COc1cc(C(=O)c2nc(-c3ccc(N(C)C)cc3)c[nH]2)cc(OC)c1OC` [70h, (4-(4-(dimethylamino)phenyl)-1H-imidazol-2-yl)(3,4,5-trimethoxyphenyl)methanone], the IC50 in experiment [2] (setting [7]) turned out to be 263 nM; in experiment [3] (Homo sapiens, PC-3, Table 13A) it was 117 nM; in experiment [1] (setting [8]), 96 nM; in experiment [4] (setting [9]), 120 nM.

Regarding `COc1cc(C(=O)c2cccc(-c3ccccc3)c2)cc(OC)c1OC` [1a, Biphenyl-3-yl(3,4,5-trimethoxyphenyl)methanone], the “antiproliferative activity in words” value in experiment [5] is “hundreds of nanomolar range”. In the case of `O=C(c1ccc(C(F)(F)F)cc1)c1nc(-c2ccc(C(F)(F)F)cc2)c[nH]1` [70u, (4-(trifluoromethyl)phenyl)(4-(4-(trifluoromethyl)phenyl)-1H-imidazol-2-yl)methanone], the IC50 is > 50000 nM in experiment [2] (setting [10]); > 50000 nM in experiment [3] (Homo sapiens, PC-3, Table 13B); > 50000 nM in experiment [1] (setting [11]); > 50000 nM in experiment [4] (setting [12]). The compound `COc1cc(C(=O)c2cn(S(=O)(=O)c3ccccc3)c(-c3ccc(N(C)C)cc3)n2)cc(OC)c1OC` [11ga, (2-(4-(dimethylamino)phenyl)-1-(phenylsulfonyl)-1H-imidazol-4-yl)(3,4,5-trimethoxyphenyl)methanone] registered an IC50 in experiment [5] of 285 nM.

As to `COc1cc(C(=O)c2csc(-c3ccccc3)n2)cc(OC)c1OC(=O)C(F)(F)F` [compound 23], in experiment [1] (setting [6]), the IC50 is ~10000 nM.

On to `O=C(c1ccc(F)cc1)c1csc(-c2ccc(F)cc2)n1` [compound 14], for which, in experiment [1] (setting [6]), the IC50 was > 10000 nM. Turning to `CCn1cc(-c2ccccc2)nc1C(=O)c1cc(OC)c(OC)c(OC)c1` [70n, (1-ethyl-4-phenyl-1H-imidazol-2-yl)(3,4,5-trimethoxyphenyl)methanone], the IC50 in experiment [3] (Homo sapiens, PC-3, Table 13A) stood at 25 nM. Turning to `CNCc1ccc(-c2nc(C(=O)c3cc(OC)c(OC)c(OC)c3)cs2)cc1.Cl` [2s, (2-(4-((Methylamino)methyl)phenyl)thiazol-4-yl)(3,4,5-trimethoxyphenyl)methanone hydrochloride], the “antiproliferative activity in words” value in experiment [5] is listed as “abrogated activity”. On to `Cc1ccc(-c2nc(C(=O)c3ccc(F)cc3)cn2S(=O)(=O)c2ccccc2)cc1` [11db, (4-fluorophenyl)(1-(phenylsulfonyl)-2-(p-tolyl)-1H-imidazol-4-yl)methanone], for which the IC50 in experiment [5] came out at 111 nM. `COc1cc(C(=O)c2csc(-c3ccccc3)n2)cc(OC)c1OCc1ccccc1` [compound 9]: the IC50 in experiment [1] (setting [6]) was ~10000 nM. As to `O=C(c1ccc(F)cc1)c1c[nH]c(-c2ccccc2)n1` [12af, (4-fluorophenyl)(2-phenyl-1H-imidazol-4-yl)methanone], the IC50 in experiment [5] came out at 910 nM. For `COc1cc(C(=O)[C@H]2COC(c3ccccc3)=N2)cc(OC)c1OC` [35a, (2R)-(2-Phenyl-4,5-dihydro-oxazol-4-yl)-(3,4,5-trimethoxy-phenyl)-methanone], in experiment [5], the “antiproliferative activity in words” value was “hundreds of nanomolar range”.

For `COc1cc(C(=O)c2coc(-c3ccccc3)n2)cc(OC)c1OC` [36a, (2-Phenyl-oxazol-4-yl)-(3,4,5-trimethoxy-phenyl)-methanone], the “antiproliferative activity in words” value in experiment [5] is on record as “hundreds of nanomolar range”. `CN(C)c1ccc(-c2nc(C(=O)c3ccc(F)cc3)cn2S(=O)(=O)c2ccccc2)cc1` [11gb, (2-(4-(dimethylamino)phenyl)-1-(phenylsulfonyl)-1H-imidazol-4-yl)(4-fluorophenyl)methanone]: the IC50 in experiment [5] is 87 nM.

For the compound `O=C(c1ccc(F)cc1)c1csc(-c2ccccc2)n1` [compound 12], in experiment [1] (setting [6]), the IC50 was > 10000 nM. The same measure, in the same setting: the result for `O=C(c1csc(-c2cc(F)c(F)c(F)c2)n1)c1c(F)c(F)c(F)c(F)c1F` [compound 16] reads > 10000 nM.

`COc1cc(OC)cc(C(=O)c2c[nH]c(-c3ccccc3)n2)c1` [12ad, (3,5-dimethoxyphenyl)(2-phenyl-1H-imidazol-4-yl)methanone]: the IC50 in experiment [5] was determined as 3100 nM. As for `COc1cc(C(O)c2csc(-c3ccccc3)n2)cc(OC)c1OC` (stereo not shown) [2b, (2-Phenylthiazol-4-yl)(3,4,5-trimethoxyphenyl)methanol], in experiment [5], the “antiproliferative activity in words” value was “inactive”. For the compound `COc1cc(C(=O)c2csc(-c3ccccc3)n2)cc(OC)c1OC(=O)CCl` [compound 18], the IC50 in experiment [1] (setting [6]) is ~10000 nM.
